From patent US10501453B2, “Benzothiazole or benzoxazole compounds as SUMO activators” (Icahn School of Medicine at Mount Sinai, priority 2012, dated 2019) come the findings set out here.

The test system of one series is SERCA2a. The series can be described thus: SERCA2a SUMOylation assay in HEK-293 cells (immunoprecipitation/immunoblotting). Type of series: cell-based. The source says: The following antibodies were used for immunoblotting and immunoprecipitation (IP): polyclonal anti-SERCA2a (21th century Biochem Inc.), monoclonal anti-GAPDH (Sigma-Aldrich, catalog no. G8795), monoclonal anti-SUMO 1 (Cell Signaling Technology Inc., catalog no. 4930), anti-mouse horseradish peroxidase (HRP) (Pierce Biotechnology Inc., catalog no. 32430), and anti-rabbit HRP (Pierce Biotechnology Inc., catalog no. 32460). YFP-tagged SUMO1, pcDNA3.0-SERCA2a, and HA-tagged Ubc9 plasmids were used for the transfection. The plasmid DNA was amplified in the Escherichia coli strain DH5a and extracted by using a commercial purification kit (Qiagen, catalog no. 12263). Purified plasmid was resuspended in sterile TE buffer (10 mM Tris-HCl and 1 mM EDTA, pH 7.6). Only the preparation highest purity (A260/A280>1.8) was used for transfection. 1 μg of each plasmid was used for transfection. HEK-293 cells (American Type Culture Collection, catalog no. CRL-1873) were grown at 37° C. and under a 5% CO2 humidified atmosphere in Dulbecco's modified Eagle's medium (DMEM, Cellgro, catalog no. 10-0 13-CM) containing 10% fetal bovine serum (SAFC Bioscience, catalog no. 12107) and 100 i.u of penicillin/ml and 100 μg of streptomycin/ml. HEK-293 cells were seeded at a density of 3-5×10^5 cells per 60 mm culture dish in DMEM. The cells were transiently transfected using Lipofectamine 2000 (Invitrogen, catalog no. 11668) with indicated expression plasmids. After 24 hours, the cells were treated with either small molecules or dimethyl sulfoxide (DMSO, Sigma-Aldrich, catalog no. D2650).
Each compound was added at 10 μM. DMSO was used as a control. After 24 hours at 37° C., SERCA2a SUMOylation and functional analysis were determined.
Equal amounts of protein from either small molecule treated or DMSO treated cells or immunoprecipitates were resolved by 7.5% SDS-PAGE and transferred to nitrocellulose membranes (Bio-Rad, catalog no. 162-0112). The membranes were blocked for 1 hour at room temperature with 5% non-fat milk (Cell Signaling Technology Inc., catalog no. 9999) in TBST (10 mM Tris-HCl, 150 mM NaCl, and 0.05% tween-20, pH 8.0). The blots were incubated with specific primary antibodies at 4° C. for overnight. The blots were then washed five times for 10 minutes each with TBST and incubated for 1 hour with HRP-conjugated secondary antibodies in TBST with 5% non-fat milk. After five times TBST washes, the protein bands were visualized with enhanced chemiluminescence (Pierce Biotechnology Inc., catalog no. 32132) and exposed to x-ray film (Denville Scientific Inc., catalog no. E3012). GAPDH expression provided an internal control.
Post-transfection (48 hours), the HEK-293 cells were rinsed twice with phosphate-buffered saline (PBS, Cellgro, catalog no. 21-040-CM) and lysed in 1% Nonidet P-40 lysis buffer (Boston Bioproducts, catalog no. BP-119) with 10 mM N-ethylmaleimide (NEM, Sigma-Aldrich, catalog no. N3876) and […] inhibitor cocktail (Complete Mini Tablet, Roche Applied Science, catalog no. 11836153001). 2 mg of protein were mixed with the anti-SERCA2a antibodies for overnight at 4° C. in lysis buffer. Pre-washed protein A-Separose beads (Pierce Biotechnology Inc., catalog no. 20333) was added to each sample and incubated 1 hour at 4° C. with gentle rocking. Immunocomplexes were washed with lysis buffer three times and precipitated by centrifugation at 12000×g for 10 seconds. The immunocomplexes were resuspended in SDS sample buffer and subjected to immunoblotting. Controls for the immunoprecipitations were performed using an anti-rabbit IgG equal to that of the primary precipitating antibody. Ten percent of whole cell lysates used in the immunoprecipitation was loaded for subsequent immunoblotting.
The ability of the Example compound to SUMOylate SERCA2a was examined using an in vitro system in HEK 293 cells where both SERCA2a and SUMO 1 are expressed. […]
Background: A western blot detects proteins with antibodies after separation by electrophoresis.

Another series addresses T1, SUMO E1 enzyme (Homo sapiens, UniProt Q9UBT2).
T1 sequence (Q9UBT2 1-640): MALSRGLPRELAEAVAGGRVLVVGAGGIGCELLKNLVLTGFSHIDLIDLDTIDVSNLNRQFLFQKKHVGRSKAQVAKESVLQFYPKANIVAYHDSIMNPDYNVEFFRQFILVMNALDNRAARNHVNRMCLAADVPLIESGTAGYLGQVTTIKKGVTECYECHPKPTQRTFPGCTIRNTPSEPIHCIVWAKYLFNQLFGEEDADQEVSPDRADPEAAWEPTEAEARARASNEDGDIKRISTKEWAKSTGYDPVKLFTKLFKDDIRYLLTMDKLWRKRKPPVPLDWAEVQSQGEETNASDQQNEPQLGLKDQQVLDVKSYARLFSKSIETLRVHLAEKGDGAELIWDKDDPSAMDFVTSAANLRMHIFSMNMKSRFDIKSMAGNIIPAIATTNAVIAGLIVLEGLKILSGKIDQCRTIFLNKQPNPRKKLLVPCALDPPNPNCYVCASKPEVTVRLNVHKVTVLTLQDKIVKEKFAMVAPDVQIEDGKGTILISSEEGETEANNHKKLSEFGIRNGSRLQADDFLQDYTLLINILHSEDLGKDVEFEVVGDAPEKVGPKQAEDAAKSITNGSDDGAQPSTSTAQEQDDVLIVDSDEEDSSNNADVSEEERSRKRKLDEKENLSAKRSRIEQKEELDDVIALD
T1 sequence (Q9UBE0 1-346): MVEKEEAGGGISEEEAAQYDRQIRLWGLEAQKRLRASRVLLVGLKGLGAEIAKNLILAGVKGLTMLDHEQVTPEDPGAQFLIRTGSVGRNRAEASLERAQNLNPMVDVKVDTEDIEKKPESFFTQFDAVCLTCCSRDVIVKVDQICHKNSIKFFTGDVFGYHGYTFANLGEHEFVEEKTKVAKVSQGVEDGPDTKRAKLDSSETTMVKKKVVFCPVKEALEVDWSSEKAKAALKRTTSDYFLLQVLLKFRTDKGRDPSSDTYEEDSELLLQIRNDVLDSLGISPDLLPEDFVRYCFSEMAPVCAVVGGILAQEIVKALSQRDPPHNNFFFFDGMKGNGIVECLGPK
The series can be described thus: ATP-dependent activation of SUMO-1 (ATP hydrolysis). Type of series: biochemical.

In the next series the test system is NCI-60 human tumor cell. The series can be described thus: NCI-60 human tumor cell screen. Type of series: cell-based. The following applies: NCI-60 set. How it is done:
The NCI-60 human tumor cell screen used by the National Cancer Institute's Developmental Therapeutics Program was performed on Example 1. The NCI-60 set includes leukemia, lymphomas, and carcinomas of ovarian, renal, breast, prostate, colon, lung and CNS origin.

For orientation: EC50 means the midpoint of the concentration-response curve. Higher therefore signals a need for much substance. Turning to `COc1ccc(-c2nnc(Nc3nc4c(OC)cccc4s3)o2)cc1` [Example 1, N-(4-methoxybenzo[d]thiazol-2-yl)-5-(4-methoxyphenyl)-1,3,4-oxadiazol-2-amine], in the series on SERCA2a, the “SERCA2a SUMOylation in HEK 293 cells” value is “increases SUMOylation of SERCA2a in a dose dependent manner”. Further, on SUMO E1 enzyme, a half-maximal response (EC50) required 40.5 ± 4.4 µM. Also, the “cancer cell growth and proliferation” value in the series on NCI-60 human tumor cell is “did not induce cancer cell growth and proliferation”.
